The text below walks through data of patent publication US7423149B2, “Substituted n-aryl amidines as selective D1 dopamine receptor antagonists for the treatment of obesity and CNS disorders” (Schering Corporation, priority 2003, dated 2008).

The target in assay [1] is T1, human Dopamine D1 receptor (Homo sapiens, UniProt P21728).
T1 construct: expressed in transfected cells; host or cells: Ltk- cells (mouse fibroblasts), membrane preparation
As to the kind of experiment: radioligand binding competition assay, displacement of [3H]SCH 23390 from D1 receptor (Ltk-cells membranes).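 On D1 binding and D2:D1 Selectivity: under 5 nM class also requires D2 to D1 selectivity above 500.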 The text has this:
(§1) Biological Activity: Compounds from this disclosure have been biologically characterized by their ability to displace a known D1-like selective ligand, [3H]SCH 23390 from the human Dopamine D1 receptor, and a known D2-like selective ligand, [3H] Methylspiperone, from the human Dopamine D2 and D4 receptors.
(§2) Affinity values (Ki) of compounds at human dopamine receptors were ascertained using radioligand binding competition assays. Cells expressing D1 (Ltk-cells), D2 (long variant, Ltk-cells), D4 (CHO cells) and D5 (GH4C1 cells) receptors were lysed in hypotonic buffer for membrane preparation. Membranes were incubated with various concentrations of test compound and 1 nM [3H] SCH 23390 (D1 and D5) and 0.2 nM [3H] Methylspiperone for (D2 and D4) assays. Non-specific binding was defined as binding in the presence of 10 micromolar of SCH 23390 for D1 and D5 assays and 10 micromolar butaclamol for D2 and D4 assays. Following incubation to equilibrium (1 hour at room temperature), bound radioligand was separated from free by rapid filtration. Bound radioactivity on the dried filters was quantified by liquid scintillation counting.
(§3) Selectivity is determined by dividing Ki for D2, D4 or D5 receptors by Ki for D1 receptor.
Background: In a radioligand displacement assay an active substance lowers the binding of a labelled ligand.

Assay [2] addresses T2, human Dopamine D2 receptor (Homo sapiens, UniProt P14416).
T2 construct: expressed in transfected cells; host or cells: Ltk- cells (mouse fibroblasts), membrane preparation
The assay can be described thus: radioligand binding competition assay, displacement of [3H] Methylspiperone from D2 receptor (long variant, Ltk-cells membranes). The following applies: Ki for D2 divided by Ki for D1.
From the text: as §1, §2, §3

Each structure is given as a SMILES string. Where two headings read alike, the source gives them in different places.

T1 sequence (P21728 whole entry): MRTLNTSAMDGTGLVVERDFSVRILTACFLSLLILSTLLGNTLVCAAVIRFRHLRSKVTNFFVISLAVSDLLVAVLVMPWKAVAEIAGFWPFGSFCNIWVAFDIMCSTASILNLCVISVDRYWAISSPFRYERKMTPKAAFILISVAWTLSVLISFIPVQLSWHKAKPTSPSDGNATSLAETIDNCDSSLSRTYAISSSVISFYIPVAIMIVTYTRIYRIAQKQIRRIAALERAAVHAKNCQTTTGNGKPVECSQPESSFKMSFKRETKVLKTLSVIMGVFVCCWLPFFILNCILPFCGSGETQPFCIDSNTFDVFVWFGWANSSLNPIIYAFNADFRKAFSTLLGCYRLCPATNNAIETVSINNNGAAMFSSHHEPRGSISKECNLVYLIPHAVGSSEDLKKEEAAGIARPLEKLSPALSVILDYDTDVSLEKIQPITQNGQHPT
T2 sequence (P14416 whole entry): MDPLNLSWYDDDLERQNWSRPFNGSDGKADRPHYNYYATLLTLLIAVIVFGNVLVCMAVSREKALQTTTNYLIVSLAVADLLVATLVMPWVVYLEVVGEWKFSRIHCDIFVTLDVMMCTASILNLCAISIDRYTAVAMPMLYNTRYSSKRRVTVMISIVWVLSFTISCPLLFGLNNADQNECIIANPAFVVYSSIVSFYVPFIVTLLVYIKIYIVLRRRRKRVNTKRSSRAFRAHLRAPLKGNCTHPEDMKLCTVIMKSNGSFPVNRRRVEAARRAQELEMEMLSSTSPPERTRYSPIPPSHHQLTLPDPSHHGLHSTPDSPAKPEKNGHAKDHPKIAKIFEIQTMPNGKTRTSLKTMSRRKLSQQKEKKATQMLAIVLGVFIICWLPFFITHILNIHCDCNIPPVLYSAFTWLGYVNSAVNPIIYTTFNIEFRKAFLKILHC

For `N=C(/C=C/c1ccc(N2CCNCC2)cc1Cl)Nc1ccc(Cl)cc1` [Example 42, (E)-N-(4-Chlorophenyl)-3-[2-chloro-4(piperazin-1-yl)phenyl]-2-propenimidamide], the Ki in assay [1] (class combines Ki (D1) and, for A and B, D2:D1 selectivity (Ki D2 / Ki D1), read-out: D1 binding and D2:D1 Selectivity) was less than 5 nM; in assay [1] (human D1 receptor, [3H] SCH 23390, read-out: Ki (D1) value), 0.9 nM. Besides, in assay [2], the “D2:D1 ratio value” is given as 1258.5.
